Results from a melting point compilation (Tetko et al.; mined from patent text by program, amines drawn as free bases though some values may be those of a salt).

Row | Compound | melting point
1 | CC(=O)c1ccc(S(=O)(=O)NCCN2CCOCC2)cc1 | 128 to 129 °C
2 | COC(=O)c1nc(-c2ccc(Cl)c(OC)c2F)nc(O)c1OC | 177 to 179 °C
3 | Cc1c(C)c(N2CCN(c3ccc(OC(F)(F)F)cc3)CC2)c(C)c2c1OC(C)(C)C2 | 216 to 219 °C
4 | N#Cc1ncn2c(C(F)(F)F)cc(-c3cccc(Cl)c3)nc12 | 221 °C
5 | CCC(C(=O)O)c1ccc2c(c1)Cc1ccccc1S2 (stereo unspecified) | 74 to 77 °C
6 | CCOC(=O)c1cn(CC)c2cc(-c3csc(CN(CC)C(C)=O)n3)c(F)cc2c1=O | 160 to 161 °C
7 | CC(C)(C)OC(=O)NC(Cc1ccccc1F)C(=O)N1CCSC1 (stereo unspecified) | 133 to 134 °C
8 | COc1cc2c(c3c1OC(C)(C)C3)C(c1cccc(NC(=O)Cc3ccncc3)c1)=NC(C)(C)C2 | 124 to 128 °C
9 | CC(Oc1ccc(-c2ccc(Cl)cc2)cc1)(C(=O)O)C(F)(F)F (stereo unspecified) | 198 to 199 °C
10 | COCn1c(C(=O)O)cc2cccc(NS(=O)(=O)c3ccccn3)c21 | 199 to 200 °C
11 | COc1ccc(-c2c(C)cc3c(O)cc(C)nn23)c(C)c1 | 234 to 237 °C
12 | COc1ccc(S(=O)(=O)N2C(=O)C(c3ccccc3OC)(N3CCC[C@H]3C(=S)N(C)C)c3cc(Cl)ccc32)c(OC)c1 (stereo partly specified) | 164 °C
13 | N#CC1(Nc2cccc(Cl)c2)CCN(C(=O)c2cc(C(F)(F)F)cc(C(F)(F)F)c2)CC1 | 205 to 207 °C
14 | COc1ccc(CNC(=O)c2cc(C)ccc2N)cc1 | 144 to 145 °C
15 | O=C(Nc1ccc(C(F)(F)F)cc1)[C@H]1[C@H](c2ccccc2)C12CCCC2 (relative stereo) | 171 to 173 °C
16 | Oc1ccc(Nc2nc(Cl)nc(Cl)n2)cc1Cl | 180 °C
17 | CCCCNC(=O)Nc1ccc(NC)cc1C(=O)NCC1CCN(C(c2ccccc2)c2ccccc2)CC1 | 203 to 204 °C
18 | COc1ccc(OCc2ccc3ccccc3n2)cc1C1(c2ccccc2)CC2CCC1C2 (stereo unspecified) | 138 to 139 °C
19 | COCCn1nnc2cc3c(=O)n(C(C)Cn4nccn4)nnc3cc2c1=O (stereo unspecified) | 145 to 146 °C
20 | O=NN(CCCl)C(=O)NCc1ccccn1 | 70 °C
21 | Nc1nc(N)c(C(=O)NC2=NCCN2)nc1Cl | 236 °C
22 | NC(=O)c1sc2nccc(N3CCCN(c4ccc(Cl)cc4)CC3)c2c1N | 92 to 96 °C
23 | Nc1nc(-c2ccncc2)nc(N)c1N | 230 to 232 °C
24 | CC(=O)NC1CCN(Cc2cnc3cc(NC(=O)c4ccc(-c5ccc(Cl)cc5)cc4)ccc3c2)C1 (stereo unspecified) | > 285 °C
25 | CCCN(CCC)c1nc2c(N3CCCC3)nccc2c(=O)[nH]1 | 220 °C
26 | CCCN1CCCCC1C(=O)Nc1c(C)cccc1C (stereo unspecified) | 142 to 145 °C
27 | CCCCCCCCCCCCCCCCCCOCCSCCOC(=O)N(Cc1ccccn1)C(C)=O | 47 to 49 °C
28 | C[C@H](NC(=O)C1(C)Oc2ccc([N+](=O)[O-])cc2NC1=O)C(=O)N[C@H](CCC(=O)O)C(N)=O (stereo partly specified) | 142 to 146 °C
29 | CN1C(=O)C(NC(=O)Nc2ccc(Cl)c(Cl)c2)N=C(c2ccccc2)c2ccccc21 (stereo unspecified) | 274 to 276 °C
30 | CCOC(=O)[C@H](Cc1cccc(OS(=O)(=O)C(F)(F)F)c1)NC(=O)C(F)(F)F | 38 to 39 °C

More lines, now with the values ahead:

Row | melting point | Compound
31 | 136 °C | CSc1c(O[C@H]2CC[C@H](NCc3ccccc3)CC2)ccc2[nH]ncc12
32 | 157 to 158 °C | c1ccc2cc(OCCc3c[nH]cn3)ccc2c1
33 | 114 to 115 °C | C=CCNc1nc(NCC=C(C)C)c2scc(C)c2n1
34 | 103 to 104 °C | CC(C)(C=O)S(=O)(=O)c1ccccc1
35 | 95 to 96 °C | C=CCC(CCC(CC=C)(C(=O)c1ccc(NCCO)cc1)N(C)C)(C(=O)c1ccc(NCCO)cc1)N(C)C (stereo unspecified)
36 | 104 to 106 °C | Cc1ccc(C2OCC(C)(CO)CO2)cc1 (stereo unspecified)
37 | 110 to 115 °C | COC(=O)N(CC(=O)OC(C)(C)C)S(=O)(=O)c1ccc(N2CCC(NC[C@H](O)c3ccc(O)c(NS(C)(=O)=O)c3)CC2)cc1
38 | 190 to 192 °C | Cc1nc2ccc(Cl)cc2c(=O)n1CCCn1ccnc1
39 | 235 to 240 °C | C#CCn1c(=O)nc(-c2ccc3c(c2)OCO3)c2cc3c(cc21)OCO3
40 | 158 to 160 °C | Cc1oc2c(-c3ccc(F)cc3)c(-c3ccc(S(C)(=O)=O)cc3)nn2c1C
41 | 206 to 210 °C | O=C(O)Cc1c(C(=O)c2ccccc2)[nH]c2ccc(Cl)c(Cl)c12
42 | 167 °C | COC(C)=CC(=O)Nc1cccc(NC(C)=O)c1
43 | 185 to 186 °C | CCCCOc1c(CNC(=O)OC(C)(C)C)n(CC(C)C)c(=O)c2ccc(O)cc12
44 | 153 °C | c1coc(Cn2c(NC3CCN(CCNc4nccs4)CC3)nc3ccccc32)c1
45 | 164 to 167 °C | COc1ccc(CC[C@H](N)C(=O)O)cc1F
46 | 100 to 101 °C | COc1c(O)c(C(C)=O)c(OC)c2c1OCC2
47 | 122 °C | C#CCOC(=O)c1ccc(OCCC2CCN(c3ccc(Cl)nn3)CC2)cc1
48 | 101 to 103 °C | COc1ccc(C(=O)CO)cc1
49 | 166 °C | CC(C#Cc1ccc(C=Cc2cccnc2)o1)N(O)C(N)=O (stereo unspecified)
50 | 119 to 122 °C | COc1ccc2c(c1)CC(C(=O)O)CC2 (stereo unspecified)
51 | 257 to 260 °C | O=C1NCc2c1cc1ccc3c(c1c2-c1cccnc1)OCO3

Row | melting point | Compound
52 | 94 to 96 °C | CCCc1nc(C(C)(C)O)c(C(=O)OC(C)OC(=O)OC(C)C)n1Cc1ccc(-c2ccccc2C(=O)O)cc1 (stereo unspecified)
53 | 136 to 139 °C | OCc1cc(N2CCCC2)ncn1
54 | 238 °C | O=C(Oc1ccc2c(OC(=O)c3ccc(O)c(Cl)c3)c3ccccc3cc2c1OC(=O)c1ccc(O)c(Cl)c1)c1ccc(O)c(Cl)c1
55 | 228 to 229 °C | O=C(O)c1ccc(OCCC2CC(=O)N(c3ccc(Cl)cc3)C2)cc1 (stereo unspecified)
56 | 66 to 67 °C | N#Cc1ncc(Cl)nc1Br
57 | 152 °C | CS(=O)c1ccc(-c2nn(CC3CC3)c(=O)cc2-c2ccc(Cl)cc2)cc1 (stereo unspecified)
58 | 110 to 114 °C | Cc1ccc(S(=O)(=O)OCC2CC(=O)N(Cc3ccccc3)C2c2c(Cl)cccc2Cl)cc1 (stereo unspecified)
59 | 124 °C | COC(=O)CCC(=O)Nc1cccc(COc2ccc(C(C)=O)c(OC)c2)c1
60 | 163 °C | CC(C)(C)c1ccc(S(=O)(=O)CC(=O)N=C=O)cc1
61 | 198 to 200 °C | Cc1nc2cc(Cl)c(Cl)cc2n1C1CC(CO)C(O)C1O (stereo unspecified)
62 | 96 to 100 °C | COc1ccc(CN(C)CCCOc2ccc(S(=O)(=O)c3c(C(C)C)cn4ccccc34)cc2)cc1OC
63 | 268 to 269 °C | O=Cc1c(Cl)c(Br)c(Br)c(Br)c1Br
64 | 130 to 131 °C | CC(C)(C)c1onc(NC(=O)C2CC2)c1Cl
65 | 230 to 233 °C | COc1cc(OC)nc(Oc2ccc3[nH]c(C)c(NC(C)=O)c3c2C(=O)O)n1
66 | 203 °C | O=C1CCC2C=C(c3cccnc3)C=C(F)C2N1 (stereo unspecified)
67 | 242 °C | C=Cn1cc(C(=O)O)c(=O)c2cc(F)c(N3CCN(C)CC3)cc21
68 | 260 to 262 °C | Cc1ccc(N2CN(c3ccccc3)c3[nH]ncc3C2=O)cc1
69 | 168 to 170 °C | O=[N+]([O-])c1cccc2c1nc(-c1c(F)cccc1F)n2Cc1c(F)cccc1F
70 | 215 to 220 °C | CC(=O)c1cccc(-c2ccc(COc3ccc(C(=O)O)c(O)c3)cc2)c1
71 | 123 to 126 °C | COc1ccc(S(=O)(=O)/C(=C/C(=O)NO)CCCCc2ccccc2)cc1OC
